Structures can show the parent of a compound that is named as a salt.
Tests used:
[1] = In-vitro free radical scavenging activity using DPPH free radical; details: 30° C., 30 minutes, 515 nm
From the text: Free Radical Scavenging Activity:
To determine the in-vitro free radical scavenging activity of compounds of general formula-I on 2,2,-diphenyl-1-picrylhydrazyl (DPPH)radical (Ref: W. Brand-Williams, M. E. Cuvelier, C. Berset “Use of a free radical method to evaluate antioxidant activity”, Lebensm.- Wiss.u.Technol.,1995,28,Nr.1:25-30).
To evaluate the free radical scavenging activity of compounds they are allowed to react with stable radical DPPH*. In its radical form, DPPH* absorbed at the characteristic wave length of 515 nm, but upon reduction by an antioxidant or radical scavenger (AH), the absorption disappears.
10^−4M solution of DPPH* was prepared in methanol.
Various concentrations (10 mM, 1 mM, 0.5 mM, 0.25 mM and 0.125 mM) of drug solutions were prepared in methanol.
900 μl of DPPH radical solution was added to an eppendorf tube. To it was added 100 μl of methanol.
900 μl of DPPH radical solution was added to an eppendorf tube. To it was added 100 μl of various concentrations of drug solutions in methanol.
The absorbance of control and test samples was recorded after incubation at 30° C. for 30 minutes, at 515 nm taking methanol as blank.
The percent antioxidant activity was calculated according to the formula:
% Antioxidant activity=100−[O.D of test sample/O.D of control*100]

Porcine DPP-IV = molecular target: T1, Porcine DPP-IV (Sus scrofa, UniProt P22411); assay: Assay of DPP-IV enzyme inhibitory activity (spectrophotometric, Gly-Pro-pNA cleavage); type: biochemical; details: Porcine DPP-IV, Gly-Pro-pNA substrate, 30° C.; mean ± SD of three experiments except compound Nos. 133 & 139; read-out: IC50 (μM) Mean ± SD, inhibitory activity on DPP-IV enzyme activity
T1 construct: purchased Sigma-Aldrich Germany
T1 sequence (P22411 whole entry): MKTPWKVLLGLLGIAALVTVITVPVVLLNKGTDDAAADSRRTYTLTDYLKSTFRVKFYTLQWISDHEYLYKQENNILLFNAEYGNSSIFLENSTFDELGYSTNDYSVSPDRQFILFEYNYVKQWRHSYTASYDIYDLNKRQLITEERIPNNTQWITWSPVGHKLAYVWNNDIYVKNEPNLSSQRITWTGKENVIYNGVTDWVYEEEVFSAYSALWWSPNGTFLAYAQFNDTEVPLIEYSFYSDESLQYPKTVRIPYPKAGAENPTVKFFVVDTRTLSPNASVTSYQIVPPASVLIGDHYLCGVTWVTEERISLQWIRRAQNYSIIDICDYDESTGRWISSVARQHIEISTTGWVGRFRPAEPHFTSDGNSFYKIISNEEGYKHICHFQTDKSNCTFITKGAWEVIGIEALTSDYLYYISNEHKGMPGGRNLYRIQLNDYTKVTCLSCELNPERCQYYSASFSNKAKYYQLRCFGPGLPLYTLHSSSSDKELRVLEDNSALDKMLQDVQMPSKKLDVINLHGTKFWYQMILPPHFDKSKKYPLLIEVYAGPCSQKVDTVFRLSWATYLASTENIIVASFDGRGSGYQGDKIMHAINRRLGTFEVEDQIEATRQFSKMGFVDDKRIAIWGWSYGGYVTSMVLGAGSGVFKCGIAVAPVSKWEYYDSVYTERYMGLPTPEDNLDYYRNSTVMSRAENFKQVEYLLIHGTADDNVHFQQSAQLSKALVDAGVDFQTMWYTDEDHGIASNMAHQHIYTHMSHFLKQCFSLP

Structure (SMILES): N#CC1CSCN1C(=O)CN(N)C1CCCC1.O=C(O)C(F)(F)F (stereo not drawn) [Compound No. 19, 3-[1-Oxo-2-((1-Cyclopentyl)-hydrazino)]ethyl-4-cyano thiazolidine trifluoroacetate]
- % Activity (antioxidant, DPPH) ([1]; Concentration 100 μM): 94.55%
- IC50 (Porcine DPP-IV): 1.46 ± 0.16 µM

Structure (SMILES): N#CC1CSCN1C(=O)CN(N)C1CCCCC1.O=C(O)C(F)(F)F (stereo not drawn) [Compound No. 21, 3-[1-Oxo-2-((1-Cyclohexyl)-hydrazino)]ethyl-4-cyano thiazolidine trifluoroacetate]
- % Activity (antioxidant, DPPH) ([1]; Concentration 100 μM): 95.71%
- IC50 (Porcine DPP-IV): 2.01 ± 0.16 µM

Structure (SMILES): CC1CCC(N(N)CC(=O)N2CSCC2C#N)CC1.O=C(O)C(F)(F)F (stereo not drawn) [Compound No. 25, 3-[1-Oxo-2-((1-(4-methyl)cyclohexyl)hydrazino)]ethyl-4-cyano thiazolidine trifluoroacetate]
- % Activity (antioxidant, DPPH) ([1]; Concentration 100 μM, 100 µM): 95.66%
- IC50 (Porcine DPP-IV): 0.67 ± 0.03 µM

Structure (SMILES): CC1CCC(N(N)CC(=O)N2CSCC2C#N)CC1.O=C(O)C(F)(F)F (stereo not drawn) [Compound No. 29, 3-[1-Oxo-2-((1-(4-methyl)cyclohexyl)-hydrazino)]ethyl-4-cyano thiazolidine trifluoroacetate]
- % Activity (antioxidant, DPPH) ([1]; Concentration 100 μM, 100 µM): 93.70%
- IC50 (Porcine DPP-IV): 0.8 ± 0.15 µM

Structure (SMILES): N#CC1CSCN1C(=O)CN(N)C1CCC(NC(=O)c2ccc(F)cc2)CC1.O=C(O)C(F)(F)F (stereo not drawn) [Compound No. 100]
- % Activity (antioxidant, DPPH) ([1]; Concentration 12.5 μM): 31.14%
- % Activity (antioxidant, DPPH) ([1]; Concentration 25 μM): 41.49%
- % Activity (antioxidant, DPPH) ([1]; Concentration 50 μM): 59.54%
- % Activity (antioxidant, DPPH) ([1]; Concentration 100 μM): 77.75%

Structure (SMILES): N#CC1CSCN1C(=O)CN(N)C1CCN(CC(=O)Nc2ccc3c(c2)OCCO3)CC1 (stereo not drawn) [Compound No. 104, 3-[1-oxo-2-[1-(1-(2-oxo-2(2,3dihydrobenzo(1,4)dioxan-6-yl)aminoethyl)piperidin-4-yl)]hydrazino]ethyl-4-cyano-thiazolidine bis-trifluoroacetate]
- % Activity (antioxidant, DPPH) ([1]; Concentration 12.5 μM): 19.40%
- % Activity (antioxidant, DPPH) ([1]; Concentration 25 μM): 36.23%
- % Activity (antioxidant, DPPH) ([1]; Concentration 50 μM): 42.20%
- % Activity (antioxidant, DPPH) ([1]; Concentration 100 μM): 50.14%

Structure (SMILES): N#CC1CSCN1C(=O)CN(N)C1CCN(CC(=O)Nc2ccc(Cl)cc2)CC1 (stereo not drawn) [Compound No. 105, 3-[1-oxo-2-[1-(1-(2-oxo-2(4-chlorophenyl)aminoethyl)piperidin-4-yl)]hydrazino]ethyl-4-cyanothiazolidine bis-trifluoroacetate]
- % Activity (antioxidant, DPPH) ([1]; Concentration 12.5 μM): 24.03%
- % Activity (antioxidant, DPPH) ([1]; Concentration 25 μM): 35.27%
- % Activity (antioxidant, DPPH) ([1]; Concentration 50 μM): 49.25%
- % Activity (antioxidant, DPPH) ([1]; Concentration 100 μM): 49.63%

Structure (SMILES): N#CC1CSCN1C(=O)CN(N)C1CCN(CC(=O)Nc2ccc(Cl)cn2)CC1 (stereo not drawn) [Compound No. 115, 3-[-1-oxo-2-[1-(1-(−2-oxo-2-(5-chloropyridin-2-yl)aminoethyl)piperidine-4-yl)]hydrazino]ethyl-4-cyanothiazolidine trihydrochloride]
- % Activity (antioxidant, DPPH) ([1]; Concentration 12.5 μM, trihydrochloride, 12.5 µM): 19.46%
- % Activity (antioxidant, DPPH) ([1]; Concentration 25 μM, trihydrochloride, 25 µM): 26.94%
- % Activity (antioxidant, DPPH) ([1]; Concentration 50 μM, trihydrochloride, 50 µM): 46.24%
- % Activity (antioxidant, DPPH) ([1]; Concentration 100 μM, trihydrochloride, 100 µM): 75.84%

Structure (SMILES): N#CC1CSCN1C(=O)CN(N)C1CCN(CC(=O)Nc2cccnc2Cl)CC1 (stereo not drawn) [compound 121]
- % Activity (antioxidant, DPPH) ([1]; Concentration 100 μM): 57.13%

Structure (SMILES): Cc1nc(NC(=O)CN2CCC(N(N)CC(=O)N3CSCC3C#N)CC2)sc1C (stereo not drawn) [compound 145, trihydrochloride]
- IC50 (Porcine DPP-IV): 0.715 ± 0.06 µM

Structure (SMILES): CC(C)(C)OC(=O)NNCC(=O)N1COCC1C#N (stereo not drawn) [compound 147, 3-[-oxo-2-(2-ter-butyloxycarbonyl) hydrazino]ethyl-4-cyanooxazolidine]
- IC50 (Porcine DPP-IV): 150 ± 43 µM
